Results as given in patent US20240228463A1, “SODIUM CHANNEL INHIBITORS AND METHODS OF DESIGNING SAME” (Genentech, Inc., priority 2021, published 2024).
Read-outs that look alike come from different tables or passages of the source.

Molecular target: T1, hNaV1.7 (Homo sapiens, UniProt Q15858)
T1 construct: expressed in transfected cells
Test: Patch voltage clamp electrophysiology (EP), Syncropatch 384PE, Nav1.7 in CHO cells;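 further: Nav1.7 stably expressed from cDNA in CHO cells, holding potential of −50 mV kept for the entire experiment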
Assay type: cell-based
Details: holding potential −50 mV, inhibition based on 7.5 min compound incubation

T1 sequence (Q15858 1-1977 isoform Q15858-3): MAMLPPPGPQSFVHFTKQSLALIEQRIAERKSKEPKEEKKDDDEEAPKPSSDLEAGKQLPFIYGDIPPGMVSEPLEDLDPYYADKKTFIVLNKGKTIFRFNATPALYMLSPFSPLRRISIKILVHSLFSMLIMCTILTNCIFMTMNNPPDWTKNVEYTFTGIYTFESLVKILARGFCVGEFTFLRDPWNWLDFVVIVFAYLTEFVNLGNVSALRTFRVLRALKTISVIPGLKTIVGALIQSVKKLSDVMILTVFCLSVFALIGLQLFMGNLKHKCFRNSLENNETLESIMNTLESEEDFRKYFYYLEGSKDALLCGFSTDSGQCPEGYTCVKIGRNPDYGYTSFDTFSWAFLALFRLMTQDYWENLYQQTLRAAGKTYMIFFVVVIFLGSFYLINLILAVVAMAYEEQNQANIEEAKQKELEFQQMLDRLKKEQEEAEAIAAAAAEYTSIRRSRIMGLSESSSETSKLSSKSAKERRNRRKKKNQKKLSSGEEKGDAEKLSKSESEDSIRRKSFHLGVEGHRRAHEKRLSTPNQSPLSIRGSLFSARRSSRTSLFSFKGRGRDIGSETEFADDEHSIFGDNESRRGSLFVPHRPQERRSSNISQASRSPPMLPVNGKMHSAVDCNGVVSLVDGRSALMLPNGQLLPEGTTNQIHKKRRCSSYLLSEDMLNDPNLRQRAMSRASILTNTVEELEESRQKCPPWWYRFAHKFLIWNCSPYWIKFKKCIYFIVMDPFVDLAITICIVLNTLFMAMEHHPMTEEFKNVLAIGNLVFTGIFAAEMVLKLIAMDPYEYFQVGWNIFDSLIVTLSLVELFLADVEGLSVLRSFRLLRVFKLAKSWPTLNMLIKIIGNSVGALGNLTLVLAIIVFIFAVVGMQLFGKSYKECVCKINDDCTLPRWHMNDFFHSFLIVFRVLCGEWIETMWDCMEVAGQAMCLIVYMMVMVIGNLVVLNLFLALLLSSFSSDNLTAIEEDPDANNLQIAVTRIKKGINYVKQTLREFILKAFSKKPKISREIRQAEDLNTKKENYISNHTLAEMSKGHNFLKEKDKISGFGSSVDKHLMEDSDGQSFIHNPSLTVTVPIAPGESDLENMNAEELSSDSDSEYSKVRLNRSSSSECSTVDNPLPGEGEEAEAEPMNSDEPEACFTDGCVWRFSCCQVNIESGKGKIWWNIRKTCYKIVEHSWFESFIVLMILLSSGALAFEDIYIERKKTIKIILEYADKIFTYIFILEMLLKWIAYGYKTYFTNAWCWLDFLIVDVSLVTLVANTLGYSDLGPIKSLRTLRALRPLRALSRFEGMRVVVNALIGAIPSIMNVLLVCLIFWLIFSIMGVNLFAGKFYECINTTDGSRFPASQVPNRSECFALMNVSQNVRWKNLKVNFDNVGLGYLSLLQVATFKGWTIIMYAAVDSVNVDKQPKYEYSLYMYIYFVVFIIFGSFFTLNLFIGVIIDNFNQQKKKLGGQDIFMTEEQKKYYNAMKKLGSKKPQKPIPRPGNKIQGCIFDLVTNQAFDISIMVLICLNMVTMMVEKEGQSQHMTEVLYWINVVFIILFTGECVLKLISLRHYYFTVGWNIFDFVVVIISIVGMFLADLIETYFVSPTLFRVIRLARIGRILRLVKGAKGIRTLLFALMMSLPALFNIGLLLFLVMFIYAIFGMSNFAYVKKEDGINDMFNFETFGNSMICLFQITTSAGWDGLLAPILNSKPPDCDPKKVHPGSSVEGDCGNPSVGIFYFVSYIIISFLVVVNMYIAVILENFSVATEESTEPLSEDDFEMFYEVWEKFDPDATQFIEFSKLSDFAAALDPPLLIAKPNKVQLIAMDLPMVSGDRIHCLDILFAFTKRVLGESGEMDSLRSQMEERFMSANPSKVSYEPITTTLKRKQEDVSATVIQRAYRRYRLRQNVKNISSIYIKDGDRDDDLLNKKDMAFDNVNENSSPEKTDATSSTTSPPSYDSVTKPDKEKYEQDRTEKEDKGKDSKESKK

**Q.** With `O=C(NS(=O)(=O)N1CCC(OC2CN(C3COC3)C2)CC1)c1cc(Cl)c(OCC2CCCC2)cc1F` [Example 11, 5-chloro-4-(cyclopentylmethoxy)-2-fluoro-N-((4-((1-(oxetan-3-yl)azetidin-3-yl)oxy)piperidin-1-yl)sulfonyl)benzamide] as the compound, how does the IC50 (read-out: hNaV1.7 EP_SP) read?
**A.** 130 nM

**Q.** How did the IC50 (read-out: hNaV1.7 EP_SP) turn out when `O=S(=O)(Nc1noc2cc(OCC3CCCC3)c(C3CC3)cc12)N1CCC(O[C@H]2CCNC2)CC1` (single isomer, unassigned) [Example 92, 2,2,2-trifluoroacetate] was run?
**A.** 69 nM

**Q.** With `C[C@H]1CCCN1S(=O)(=O)NC(=O)c1cc(Cl)c(OCC2CCCC2)cc1F` (single isomer, unassigned) [Example 223] as the compound, how does the IC50 (read-out: hNaV1.7 EP_SP) read?
**A.** 39 nM

**Q.** For `CCc1cc(C(=O)NS(=O)(=O)N2CCC(OC3CN(C)C3)CC2)c(F)cc1OCC1CCCC1` [Example 3, 4-(cyclopentylmethoxy)-5-ethyl-2-fluoro-N-((4-((1-methylazetidin-3-yl)oxy)piperidin-1-yl)sulfonyl) benzamide], which IC50 (read-out: hNaV1.7 EP_SP) is on record?
**A.** 22 nM

**Q.** Which IC50 (read-out: hNaV1.7 EP_SP) does the source give for `CC(C)(C)OC(=O)C1CC2C(C1)C2NS(=O)(=O)NC(=O)c1cc(Cl)c(OCC2CCCC2)cc1F` (centres unmarked) [Example 327, tert-butyl 6-((N-(5-chloro-4-(cyclopentylmethoxy)-2-fluorobenzoyl)-sulfamoyl)amino)bicyclo[3.1.0]hexane-3-carboxylate] here?
**A.** 920 nM

**Q.** Which IC50 (hNaV1.7 EP_SP) does the source give for `COc1cc(-c2cccc(C(F)(F)F)c2)c(F)cc1N1C(=O)CO[C@@H]2CN(S(=O)(=O)Nc3noc4ccc(C5CC5)cc34)CC[C@H]21` (single isomer, unassigned) [Example 93] here?
**A.** 110 nM

**Q.** For `CN(C)[C@H]1CCCC[C@@H]1Oc1ccc(S(=O)(=O)Nc2nc3cccc(Cl)c3s2)c(F)c1` [Example 99, N-(7-chlorobenzo[d]thiazol-2-yl)-4-(((1S,2S)-2-(dimethylamino)cyclohexyl)-oxy)-2-fluorobenzenesulfonamide], which IC50 (read-out: hNaV1.7 EP_SP) is on record?
**A.** 430 nM

**Q.** With `CN1CC(OC2CCN(S(=O)(=O)NC(=O)c3cc(C4CC4)c(OCc4ccccc4)cc3F)CC2)C1` [Example 236, 4-(benzyloxy)-5-cyclopropyl-2-fluoro-N-((4-((1-methylazetidin-3-yl)oxy)piperidin-1-yl)sulfonyl)benzamide] as the compound, how does the IC50 (read-out: hNaV1.7 EP_SP) read?
**A.** 39 nM

**Q.** Which IC50 (read-out: hNaV1.7 EP_SP) does the source give for `O=C(NS(=O)(=O)N1CC(OC2CCNCC2)C1)c1cc(Cl)c(OCC2CCCC2)cc1F` [Example 50, 5-chloro-4-(cyclopentylmethoxy)-2-fluoro-N-((3-(piperidin-4-yloxy)azetidin-1-yl)sulfonyl)benzamide] here?
**A.** 260 nM

**Q.** How did the IC50 (read-out: hNaV1.7 EP_SP) turn out when `O=C(NS(=O)(=O)c1ccc(OCC2CCNC2)cc1)c1cc(Cl)c(OCC2CCCC2)cc1F` (stereo in doubt) [Example 302, (R)-5-chloro-4-(cyclopentylmethoxy)-2-fluoro-N-((4-(pyrrolidin-3-ylmethoxy)phenyl)sulfonyl)benzamide] was run?
**A.** 120 nM

**Q.** For `O=C(NS(=O)(=O)N1CCCCCC1)c1cc(Cl)c(OCC2CCCC2)cc1F` [Example 227, N-(azepan-1-ylsulfonyl)-5-chloro-4-(cyclopentylmethoxy)-2-fluorobenzamide], which IC50 (read-out: hNaV1.7 EP_SP) is on record?
**A.** 20 nM

**Q.** `CN1CC(OC2CCN(S(=O)(=O)NC(=O)c3cc(C4CC4)c(OCC4CC4)cc3F)CC2)C1` [Example 9, 5-cyclopropyl-4-(cyclopropylmethoxy)-2-fluoro-N-((4-((1-methylazetidin-3-yl)oxy)piperidin-1-yl)sulfonyl)benzamide] was tested. Which IC50 (read-out: hNaV1.7 EP_SP) did it give?
**A.** 59 nM

**Q.** `O=C(NS(=O)(=O)CCCOc1cccc(C(F)(F)F)c1)c1cc(Cl)c(OCC2CCCC2)cc1F` [Example 253, 5-chloro-4-(cyclopentylmethoxy)-2-fluoro-N-((3-(3-(trifluoromethyl)phenoxy)propyl)sulfonyl)benzamide] was tested. Which IC50 (read-out: hNaV1.7 EP_SP) did it give?
**A.** 420 nM

**Q.** How did the IC50 (read-out: hNaV1.7 EP_SP) turn out when `N[C@]12C[C@H]1CN(S(=O)(=O)NC(=O)c1cc(Cl)c(OCC3CCCC3)cc1F)C2` (single isomer, unassigned) [Example 217, 2,2,2-trifluoroacetate] was run?
**A.** 370 nM

**Q.** Which IC50 (read-out: hNaV1.7 EP_SP) does the source give for `CCc1ccc(S(=O)(=O)NC(=O)c2cc(Cl)c(OCC3CCCC3)cc2F)cc1` [Example 243, 5-chloro-4-(cyclopentylmethoxy)-N-((4-ethylphenyl)sulfonyl)-2-fluorobenzamide] here?
**A.** 670 nM

**Q.** Which IC50 (read-out: hNaV1.7 EP_SP) does the source give for `O=C(NS(=O)(=O)N1CC[C@@H]2CCC[C@H]21)c1cc(Cl)c(OCC2CCCC2)cc1F` (single isomer, unassigned) [Example 220] here?
**A.** 14 nM

**Q.** With `O=C(NS(=O)(=O)N1CCC(O[C@@H]2CCNC2)CC1)c1cc(C2CC2)c(OCC2CCCC2)cc1F` (single isomer, unassigned) [Example 29, 2,2,2-trifluoroacetate] as the compound, how does the IC50 (read-out: hNaV1.7 EP_SP) read?
**A.** 27 nM

**Q.** `O=C(NS(=O)(=O)N1CC[C@H]2CCC[C@@H]21)c1cc(Cl)c(OCC2CCCC2)cc1F` (single isomer, unassigned) [Example 221] was tested. Which IC50 (read-out: hNaV1.7 EP_SP) did it give?
**A.** 16 nM

**Q.** With `CCOc1ccc(S(=O)(=O)NC(=O)c2cc(Cl)c(OCC3CCCC3)cc2F)cn1` [Example 285, 5-chloro-4-(cyclopentylmethoxy)-N-((6-ethoxypyridin-3-yl)sulfonyl)-2-fluorobenzamide] as the compound, how does the IC50 (read-out: hNaV1.7 EP_SP) read?
**A.** 350 nM

**Q.** For `CN(C)[C@H]1CCCC[C@@H]1Oc1ccc(S(=O)(=O)NC(=O)c2cc(C3CC3)c(OCC3CCCC3)cc2F)c(F)c1` [Example 65, 4-(cyclopentylmethoxy)-5-cyclopropyl-N-((4-(((1S,2S)-2-(dimethylamino)cyclohexyl)oxy)-2-fluorophenyl)sulfonyl)-2-fluorobenzamide], which IC50 (read-out: hNaV1.7 EP_SP) is on record?
**A.** 25 nM

**Q.** For `COc1cc(C(=O)NS(=O)(=O)N2CCC(OC3CN(C)C3)CC2)c(F)cc1OCC1CCCC1` [Example 6, 4-(cyclopentylmethoxy)-2-fluoro-5-methoxy-N-((4-((1-methylazetidin-3-yl)oxy)piperidin-1-yl)sulfonyl) benzamide], which IC50 (read-out: hNaV1.7 EP_SP) is on record?
**A.** 320 nM

**Q.** With `CC(=O)N1CCc2cccc(COc3ccc(S(=O)(=O)NC(=O)c4cc(Cl)c(OCC5CCCC5)cc4F)cc3)c2C1` [Example 297, N-((4-((2-acetyl-1,2,3,4-tetrahydroisoquinolin-8-yl)methoxy)phenyl)sulfonyl)-5-chloro-4-(cyclopentylmethoxy)-2-fluorobenzamide] as the compound, how does the IC50 (read-out: hNaV1.7 EP_SP) read?
**A.** 22 nM

**Q.** With `O=C(NS(=O)(=O)c1cnn(-c2cccc(C(F)(F)F)c2)c1)c1cc(Cl)c(OCC2CCCC2)cc1F` [Example 259, 5-chloro-4-(cyclopentylmethoxy)-2-fluoro-N-((1-(3-(trifluoromethyl)phenyl)-1H-pyrazol-4-yl)sulfonyl)benzamide] as the compound, how does the IC50 (read-out: hNaV1.7 EP_SP) read?
**A.** 790 nM

**Q.** How did the IC50 (read-out: hNaV1.7 EP_SP) turn out when `O=C(NS(=O)(=O)c1ccc2c(c1)OCCO2)c1cc(Cl)c(OCC2CCCC2)cc1F` [Example 281, 5-chloro-4-(cyclopentylmethoxy)-N-((2,3-dihydrobenzo[b][1,4]dioxin-6-yl)sulfonyl)-2-fluorobenzamide] was run?
**A.** 320 nM

**Q.** How did the IC50 (read-out: hNaV1.7 EP_SP) turn out when `O=C(NS(=O)(=O)N1CCCCC1)c1cc(Cl)c(OCC2CCCC2)cc1F` [Example 21, 5-chloro-4-(cyclopentylmethoxy)-2-fluoro-N-(piperidin-1-ylsulfonyl)benzamide] was run?
**A.** 14 nM

**Q.** For `O=C(NS(=O)(=O)N1CCC2CCNCC2C1)c1cc(Cl)c(OCC2CCCC2)cc1F` (centres unmarked) [Example 321, 5-chloro-4-(cyclopentylmethoxy)-2-fluoro-N-((octahydro-2,7-naphthyridin-2(1H)-yl)sulfonyl)benzamide], which IC50 (read-out: hNaV1.7 EP_SP) is on record?
**A.** 210 nM

**Q.** For `CN(C)C1CN(S(=O)(=O)NC(=O)c2cc(Cl)c(OCC3CCCC3)cc2F)C1` [Example 234, 5-chloro-4-(cyclopentylmethoxy)-N-((3-(dimethylamino)azetidin-1-yl)sulfonyl)-2-fluorobenzamide], which IC50 (read-out: hNaV1.7 EP_SP) is on record?
**A.** 340 nM

**Q.** `CC(C)c1cc(C(=O)NS(=O)(=O)N2CCC(OC3CN(C)C3)CC2)c(F)cc1OCC1CCCC1` [Example 5, 4-(cyclopentylmethoxy)-2-fluoro-5-isopropyl-N-((4-((1-methylazetidin-3-yl)oxy)piperidin-1-yl)sulfonyl)benzamide] was tested. Which IC50 (read-out: hNaV1.7 EP_SP) did it give?
**A.** 39 nM

**Q.** `O=C(NS(=O)(=O)N1CC(O[C@@H]2CCCNC2)C1)c1cc(Cl)c(OCC2CCCC2)cc1F` (single isomer, unassigned) [Example 49] was tested. Which IC50 (read-out: hNaV1.7 EP_SP) did it give?
**A.** 860 nM

**Q.** `CN1CC[C@H](OC2CCN(S(=O)(=O)NC(=O)c3cc(Cl)c(OCC4CCCC4)cc3F)CC2)C1` (single isomer, unassigned) [Example 38] was tested. Which IC50 (read-out: hNaV1.7 EP_SP) did it give?
**A.** 39 nM

**Q.** For `O=C(NS(=O)(=O)c1ccc(OCc2cccnc2)cc1)c1cc(Cl)c(OCC2CCCC2)cc1F` [Example 310, 5-chloro-4-(cyclopentylmethoxy)-2-fluoro-N-((4-(pyridin-3-ylmethoxy)phenyl)sulfonyl)benzamide], which IC50 (read-out: hNaV1.7 EP_SP) is on record?
**A.** 18 nM

**Q.** Which IC50 (read-out: hNaV1.7 EP_SP) does the source give for `O=C(NS(=O)(=O)c1ccccc1)c1cc(Cl)c(OCC2CCCC2)cc1F` [Example 78, 5-chloro-4-(cyclopentylmethoxy)-2-fluoro-N-(phenylsulfonyl)benzamide] here?
**A.** 100 nM

**Q.** With `O=C(NS(=O)(=O)c1ccc2c(c1)CCO2)c1cc(Cl)c(OCC2CCCC2)cc1F` [Example 271, 5-chloro-4-(cyclopentylmethoxy)-N-((2,3-dihydrobenzofuran-5-yl)sulfonyl)-2-fluorobenzamide] as the compound, how does the IC50 (read-out: hNaV1.7 EP_SP) read?
**A.** 260 nM

**Q.** With `COc1ccccc1COc1ccc(S(=O)(=O)NC(=O)c2cc(Cl)c(OCC3CCCC3)cc2F)cc1` [Example 318, 5-chloro-4-(cyclopentylmethoxy)-2-fluoro-N-((4-((2-methoxybenzyl)oxy)phenyl)sulfonyl)benzamide] as the compound, how does the IC50 (read-out: hNaV1.7 EP_SP) read?
**A.** 190 nM

**Q.** For `O=C(NS(=O)(=O)c1ccc(Oc2ccc(Cl)cc2)cc1)c1cc(Cl)c(OCC2CCCC2)cc1F` [Example 288, 5-chloro-N-((4-(4-chlorophenoxy)phenyl)sulfonyl)-4-(cyclopentylmethoxy)-2-fluorobenzamide], which IC50 (read-out: hNaV1.7 EP_SP) is on record?
**A.** 490 nM

**Q.** With `CN(C)[C@H]1CCCC[C@@H]1Oc1ccc(S(=O)(=O)Nc2ccc(SCc3ccccc3Cl)cn2)c(F)c1` [Example 257, N-(5-((2-chlorobenzyl)thio)pyridin-2-yl)-4-(((1S,2S)-2-(dimethylamino)cyclohexyl)oxy)-2-fluorobenzenesulfonamide] as the compound, how does the IC50 (read-out: hNaV1.7 EP_SP) read?
**A.** 730 nM

**Q.** `CN(C)[C@H]1CCCC[C@@H]1OC1CCN(S(=O)(=O)NC(=O)c2cc(C3CC3)c(OCC3CCCC3)cc2F)CC1` [Example 331, 4-(cyclopentylmethoxy)-5-cyclopropyl-N-((4-(((1S,2S)-2-(dimethylamino)cyclohexyl)oxy)piperidin-1-yl)sulfonyl)-2-fluorobenzamide] was tested. Which IC50 (read-out: hNaV1.7 EP_SP) did it give?
**A.** 140 nM

**Q.** Which IC50 (read-out: hNaV1.7 EP_SP) does the source give for `O=C(NS(=O)(=O)C1CCCCC1)c1cc(Cl)c(OCC2CCCC2)cc1F` [Example 82, 5-chloro-N-(cyclohexylsulfonyl)-4-(cyclopentylmethoxy)-2-fluorobenzamide] here?
**A.** 30 nM
